Test results taken from patent publication US12251370B2, “Small molecule inhibitors of the BfrB:Bfd interaction” (BOARD OF SUPERVISORS OF LOUISIANA STATE UNIVERSITY AND …, priority 2018, dated 2025).
≈ marks a conversion by molar mass, not a printed value. Where “and” joins values, the source holds several entries; their conditions need not be identical. Equal values may be shown once. Read-outs that look alike come from different tables or passages of the source.

Legend:
[1] = test system: P. aeruginosa; experiment: Growth curves and IC50 determination in P. aeruginosa; format: cell-based, Pseudomonas aeruginosa (PAO1); details: M63 media, growth % from OD600 at 13 h, three independent experiments
Experimental: (§1) Pre-cultures (5 mL LB media) were grown for 12 h at 37° C. and 220 rpm in 50 mL conical tubes (VWR International, PA) covered with an air permeable membrane. The cells were then centrifuged at 4,000 rpm for 10 min, the resultant cell pellets washed twice in M63 media and then diluted in M63 media to OD600=0.01. Stock solutions (100 mM) of analog in DMSO were prepared weekly and stored at 4° C. Prior to initiating experiments in 96 well plates, the analog stock solution was serially diluted to make 10 mM or 1 mM working solutions in DMSO. A small volume of the appropriate working solution was transferred to a glass vial, diluted with DMSO to 30 μL, and then diluted to a final volume of 1.5 mL with pre-culture cell suspension with an OD600=0.01. The resultant cell suspension (200 μL) was transferred to a clear-bottom polystyrene 96 well plate (VWR), and incubated at 35° C. and 205 cpm for 13 h in an Epoch 2 microplate spectrophotometer (Biotek Instruments, Inc., Vermont). The growth curve in the presence of Ciprofloxacin was obtained in the same plate. […] MIC determinations were carried out using standard broth microdilution methods in 48 well plates and modified M63 media. Cells were incubated at 35° C.

[2] = test system: A. baumannii; experiment: Growth curves and IC50 determination in A. baumannii; format: cell-based, Acinetobacter baumannii (AB5075); details: AB5075, modified M63 media, 48 well-plates
Experimental: as §1
This idea was tested with A. baumanni AB5075, a highly virulent isolate, which has been proposed as a model strain for the evaluation of pathogenesis and antimicrobial treatments.^66.

[3] = test system: A. baumannii; experiment: MIC determination by broth microdilution in A. baumannii; format: cell-based, Acinetobacter baumannii (AB5075); details: modified M63 media, 35° C.; for MIC: Acinetobacter baumannii
Experimental: as §1, with “M63” left out, “A small volume of the appropriate working solution was transferred to a glass vial, diluted with DMSO to 30 μL, and then diluted to a final volume of 1.5 mL with pre-culture cell suspension with an OD600=0.01.” left out

[4] = molecular target: T1, BfrB (Pseudomonas aeruginosa, UniProt Q9HY79); experiment: STD NMR fragment screening with Bfd competitive displacement; format: binding; details: STD NMR with Bfd as specific competitor
T1 sequence (Q9HY79 whole entry, the tested form may be a part): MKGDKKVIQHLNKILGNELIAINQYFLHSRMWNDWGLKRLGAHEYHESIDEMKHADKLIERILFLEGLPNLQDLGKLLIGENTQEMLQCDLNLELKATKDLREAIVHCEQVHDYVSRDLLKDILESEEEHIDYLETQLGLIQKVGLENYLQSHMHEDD
From the text: Fragment Library Screening Using Saturation Transfer Difference (STD) NMR Spectroscopy
Structural information obtained from the BfrB-Bfd complex was used to design a fragment library to screen for molecules that bind BfrB at the Bfd-binding site. […] In addition, fragments capable of π-π stacking were included with both electron rich and deficient aromatic rings. To screen the library in search of fragments that bind BfrB at the Bfd-binding site a competition assay was developed that utilizes saturation transfer difference (STD) NMR spectroscopy. This technique is ideally suited to screen fragments that bind to the large BfrB (˜440 kDa) because protein resonance assignments are not necessary and very low protein concentrations are required. In addition, the large rotational correlation time (τc) of BfrB enhances spin diffusion and therefore saturation transfer within the protein and to the ligand.^51 Two solutions were prepared for each fragment: a solution of the fragment alone, and a solution of the fragment and BfrB. Three spectra were obtained for each fragment. The ^1H spectrum of the fragment alone was used to determine fragment integrity and solubility, the ^1H spectrum of the fragment in the presence of BfrB was used to corroborate that fragment integrity and solubility is not affected by BfrB, and the STD spectrum of the solution containing the fragment and BfrB was used to assess fragment binding. This strategy uncovered 18 compounds that bind BfrB. The specificity criterion for fragment binders, however, is that these bind BfrB specifically at the Bfd-binding site. To eliminate non-specific binders, a displacement strategy was implemented that utilizes Bfd as a specific competitor. For this purpose, a STD spectrum was acquired from a solution containing fragment, BfrB and Bfd. […] These fragments were advanced to the next stage, which was focused on uncovering structural information of fragment binding.

[5] = test system: P. aeruginosa PAO1; experiment: Effect of analogs on the potency of fluoroquinolone antibiotics, strain PAO1; format: cell-based, Pseudomonas aeruginosa; details: data not shown
Experimental: The combined treatment was carried out similarly, ensuring that the final concentration of DMSO was 2%.

[6] = test system: wild type P. aeruginosa cells; experiment: Growth response of wild type cells to analog (viable cell count); format: cell-based, Pseudomonas aeruginosa; details: M63 + 4 μM Fe; 15 h post-inoculation; viable cells vs untreated control
Experimental: (§2) To this end, wild type and ΔbfrB cells were cultured in M63 media supplemented with 4 μM Fe, in the presence of different concentrations of analog. […] Since BfrB is not essential, it is likely that the cell can compensate for the absence of the iron storage protein. […] The sudden onset of toxicity observed in the second phase, which is not observed with the wild type cells, is probably related to off-target effects that expose a fitness vulnerability caused by the absence of BfrB. Consequently, it is possible to conclude that the dose-dependent growth defect elicited by 11 or 16 on wild type P. aeruginosa cells is largely a consequence of the interaction between the small molecule inhibitors and BfrB in the bacterial cell. This issue was investigated in additional detail (see below) by probing the phenotypic and biochemical response of wild type cells treated with the small molecule inhibitors.

[7] = test system: ΔbfrB P. aeruginosa cells; experiment: Growth response of bfrB deletion mutant cells to analog; format: cell-based, Pseudomonas aeruginosa; details: M63 + 4 μM Fe; 15 h post-inoculation; viable cells vs untreated control
Experimental: as §2

[8] = test system: P. aeruginosa; details: literature value; cited from earlier work
[9] = test system: A. baumannii cells; experiment: CAS assay for siderophore detection; format: cell-based, Acinetobacter baumannii; details: analog 64 μM; modified M63 media; 35° C.
Experimental: These experiments were carried out in 48 well-plates in a Synergy H1 microplate spectrophotometer as described above for obtaining A. baumannii growth curves. Cultures treated with analog KM-5-25 at 64 μM final concentration were used in these experiments. The cell-free supernatants (25 μL) collected after the 24-h growth curves had been completed was mixed with 175 μL of the CAS assay reagent (10 mM hexadecyltrimethyl ammonium bromide (HDTMA), 1 mM FeCl3·6H2O, 2 mM azurol S-CAS in 145 mM PIPES buffer, pH 5.9).^64 The absorbance at 630 nm was read in an Epoch2 microplate spectrophotometer after 2 h and used to calculate the percent siderophore (PSU) with the aid of equation 3,^65 where Ar is the absorbance of the reference solution (CAS solution and un-inoculated media) and As is the absorbance of the sample (CAS solution and cell-free supernatant). PSU values were normalized to CFU/mL.
The results are illustrated in FIGS. 8A and 8B with observations made when A. baumannii cells are cultured at 35° C. in modified M63 media treated with analogs KM-5-25 and KM-5-35.

[10] = molecular target: apo-BfrB (Pseudomonas aeruginosa, UniProt Q9HY79); experiment: Fluorescence polarization binding assay, apo-BfrB titrated into fluorescent ligand; details: fluorescence polarization and intensity near emission λmax
apo-BfrB, sequence (Q9HY79 whole entry): as the sequence (Q9HY79 whole entry, the tested form may be a part) above
Experimental: Prior to testing the effect that the 4-substituted isoindoline-1,3-dione derivatives might exert on P. aeruginosa cells, the strength of their interaction with BfrB was evaluated in vitro with a fluorescence polarization assay developed based on the intrinsic fluorescence of the isoindoline-1,3-dione moiety.

[11] = molecular target: T1, BfrB; experiment: Bfd association with BfrB in solution; format: binding; details: apo-BfrB; read-out: Kd, interaction between Bfd and apo-BfrB
[12] = molecular target: T1, BfrB; details: holo-BfrB; previously reported; read-out: Kd, interaction between Bfd and BfrB (holo); cited from earlier work

O=C1NC(=O)c2c(NCc3cccc(O)c3)cccc21 [Analog 12, 4-((3-Hydroxybenzyl)amino)isoindoline-1,3-dione]
P. aeruginosa IC50 [1]: Not active

4-((3-(4-Chloro-2-hydroxyphenyl)propyl)amino)isoindoline-1,3-dione [KM-5-66]
IC50 [1]: 48 µM | IC50 [2]: < 32 µM | A. baumannii MIC [3]: 80 to 128 µM

CC(=O)c1ccc2c(c1)NC(=O)CO2 [6-acetyl-2H-benzo[b][1,4]oxazin-3(4H)-one]
fragment binding to BfrB, STD signal displaced by Bfd [4]: bind at the Bfd-binding site

O=C1NC(=O)c2c(NCCCc3ccc(O)cc3O)cccc21 [Analog 14]
IC50 ([1]; Pseudomonas aeruginosa): 143 µM

gentamycin [reference compound]
enhancement of antibacterial activity in combination with the small molecule inhibitors of the BfrB-Bfd interaction [5]: no enhancement

COc1cc(O)ccc1CCCNc1cccc2c1C(=O)NC2=O [Analog 15]
IC50 ([1]; Pseudomonas aeruginosa): 227 µM

Nc1cccc2c1C(=O)NC2=O [Analog 8, reference compound]
P. aeruginosa IC50 [1]: Not active

Brc1cccc(-c2nnn[nH]2)c1 [5-(3-bromophenyl)-1H-tetrazole]
fragment binding to BfrB, STD signal displaced by Bfd [4]: bind at the Bfd-binding site

Cc1cc(NS(=O)(=O)c2ccc(N)cc2)no1 [4-amino-N—(S-methylisoxazol-3-yl)benzenesulfonamide]
fragment binding to BfrB, STD signal displaced by Bfd [4]: bind at the Bfd-binding site

O=C1NC(=O)c2c(NCc3ccccc3O)cccc21 [Analog 11, 4-((2-Hydroxybenzyl)amino)isoindoline-1,3-dione]
growth response of wild type cells [6]: monophasic dose-dependent growth defect | IC50 ([1]; Pseudomonas aeruginosa): 258 µM | growth response of ΔbfrB mutant cells [7]: biphasic growth response

O=C1NC(=O)c2c(NCc3ccc(Br)cc3O)cccc21 [JAG-005-030, 4-((4-Bromo-2-hydroxybenzyl)amino)isoindoline-1,3-dione]
IC50 ([2]; Acinetobacter baumannii): 48 µM | MIC [3]: 80 to 128 µM (≈ 27.8 to 44.4 µg/mL)

NC[C@H]1O[C@H](O[C@H]2[C@H](O)[C@@H](O[C@H]3O[C@H](CO)[C@@H](O)[C@H](N)[C@H]3O)[C@H](N)C[C@@H]2N)[C@H](N)C[C@@H]1O [tobramycin, reference compound]
enhancement of antibacterial activity in combination with the small molecule inhibitors of the BfrB-Bfd interaction [5]: no enhancement

CC(=O)Nc1ccc(Br)cc1 [N-(4-bromophenyl)acetamide]
fragment binding to BfrB, STD signal displaced by Bfd [4]: bind at the Bfd-binding site

O=C(O)c1cn(C2CC2)c2cc(N3CCNCC3)c(F)cc2c1=O [ciprofloxacin]
reported MIC [8]: 0.25 µg/mL

CC(C)(O/N=C(\C(=O)N[C@@H]1C(=O)N2C(C(=O)[O-])=C(C[n+]3ccccc3)CS[C@H]12)c1csc(N)n1)C(=O)O [ceftazidime, reference compound]
enhancement of antibacterial activity in combination with the small molecule inhibitors of the BfrB-Bfd interaction [5]: no enhancement

O=C1NC(=O)c2cc(O)ccc21 [5-hydroxyisoindoline-1,3-dione]
fragment binding to BfrB, STD signal displaced by Bfd [4]: bind at the Bfd-binding site

CCn1cc(C(=O)O)c(=O)c2cc(F)c(N3CCNCC3)cc21 [norfloxacin]
reported MIC [8]: 0.9 µg/mL

O=C1NC(=O)c2c(NCCCc3ccc(O)cc3)cccc21 [Analog 13]
IC50 ([1]; Pseudomonas aeruginosa): 201 µM

O=C1NC(=O)c2c(NCCCc3cc(F)ccc3O)cccc21 [JAG-005-006, 4-((3-(5-Fluoro-2-hydroxyphenyl)propyl)amino)isoindoline-1,3-dione]
IC50 ([1]; Pseudomonas aeruginosa): 48 µM | MIC [3]: 128 µM (≈ 40.2 µg/mL)

O=C1NC(=O)c2c(NCc3cc(Cl)ccc3O)cccc21 [KM-5-25, 4-((5-Chloro-2-hydroxybenzyl)amino)isoindoline-1,3-dione]
IC50 ([1]; Pseudomonas aeruginosa): 64 µM | siderophores produced relative to untreated control, normalized to CFU/mL [9]: approximately 2 fold | IC50 ([2]; Acinetobacter baumannii): 64 µM | Kd [10]: 2900 ± 1900 nM | MIC [3]: 128 µM (≈ 38.7 µg/mL)

O=C1NC(=O)c2c(NCc3cc(Br)ccc3O)cccc21 [KM-5-35, 4-((5-Bromo-2-hydroxybenzyl)amino)isoindoline-1,3-dione]
IC50 ([1]; Pseudomonas aeruginosa): 48 µM | siderophores produced relative to untreated control, normalized to CFU/mL [9]: approximately 2 fold | IC50 ([2]; Acinetobacter baumannii): 64 µM | Kd [10]: 2000 ± 1400 nM | MIC [3]: 80 to 128 µM (≈ 27.8 to 44.4 µg/mL)

CS(=O)(=O)Nc1ccc(C#N)cc1 [N-(4-cyanophenyl)methanesulfonamide]
fragment binding to BfrB, STD signal displaced by Bfd [4]: bind at the Bfd-binding site

B1: Bfd: bacterioferritin-associated ferredoxin, cognate partner of the iron storage protein BfrB (protein, UniProt Q9HY80 1-73, looked up)
Bacterioferritin-associated …: MYVCLCQGVTDNQIRDAIYEGCCSYREVREATGVGTQCGKCACLAKQVVRETLNDLQSAQPVPAFGTTAFVAA
Kd [11]: 3.1 µM | Kd [12]: 3400 nM and 3000 nM and ~3000 nM
